Activity calls are given as the source filed them. The calls are words filed in the database; no cut-off is given here.
Legend:
[1] = Cytotoxicity against mouse SMB cells up to 20 uM; type: cell-based
Plasmodium falciparum [2] = assay: Antimalarial malarial activity against chloroquine-resistant Plasmodium falciparum K1 infected in human A positive erythrocytes assessed as inhibition of [3H]hypoxanthine incorporation after 24 hrs; type: functional, organism-based
[3] = Antiprion activity against Chandler strain of sheep scrapie prion protein infected in mouse SMB cells assessed as clearance of disease-associated scrapie prion protein; type: cell-based, Ovis aries
Plasmodium falciparum [4] = assay: Antimalarial malarial activity against chloroquine-sensitive Plasmodium falciparum 3D7 infected in human A positive erythrocytes assessed as inhibition of [3H]hypoxanthine incorporation at 19.3 ug/ml after 24 hrs; type: functional, organism-based
Plasmodium falciparum [5] = assay: Antimalarial malarial activity against chloroquine-sensitive Plasmodium falciparum 3D7 infected in human A positive erythrocytes assessed as inhibition of [3H]hypoxanthine incorporation after 24 hrs; type: functional, organism-based
Plasmodium falciparum [6] = assay: Antimalarial malarial activity against chloroquine-resistant Plasmodium falciparum K1 infected in human A positive erythrocytes assessed as inhibition of [3H]hypoxanthine incorporation 10 ug/ml after 24 hrs; type: functional, organism-based
[7] = Ovis aries, SMB, read-out: EC50

O=C(NCCN1CCCC1)c1sc(-c2ccccc2)nc1-c1ccccc1
Activity [1]: Toxic | IC50 (Plasmodium falciparum [2]): 14.9 µM | EC50 [3, 7]: 10.7 µM | inhibition (Plasmodium falciparum [4]): inactive

CCN(CC)CCNC(=O)c1sc(-c2cccs2)nc1-c1ccccc1
IC50 (Plasmodium falciparum [5]): 13.8 µM | Activity [1]: Non-toxic | IC50 (Plasmodium falciparum [2]): 4.4 µM | EC50 [3, 7]: 6.7 µM

O=C(c1sc(-c2ccccc2)nc1-c1ccccc1)N1CCC(N2CCCC2)CC1
IC50 (Plasmodium falciparum [5]): 12 µM | Activity [1]: Non-toxic | IC50 (Plasmodium falciparum [2]): 6.2 µM | EC50 [3, 7]: 5.5 µM

CCN(CC)CCCC(C)NC(=O)c1sc(-c2ccccc2)nc1-c1ccccc1 (stereo not drawn)
IC50 (Plasmodium falciparum [5]): 9.5 µM | Activity [1]: Non-toxic | IC50 (Plasmodium falciparum [2]): 3.8 µM | EC50 [3, 7]: 2.9 µM

O=C(NCCN1CCOCC1)c1sc(-c2ccccc2)nc1-c1ccccc1
inhibition (Plasmodium falciparum [6]): inactive | Activity [1]: Non-toxic | EC50 ([3]; smb): Not Active | inhibition (Plasmodium falciparum [4]): inactive

CCN(CC)CCNC(=O)c1sc(-c2ccc(OC)cc2)nc1-c1ccccc1
Activity [1]: Non-toxic | IC50 (Plasmodium falciparum [2]): 7.7 µM | EC50 [3, 7]: 4 µM | inhibition (Plasmodium falciparum [4]): inactive

CCN(CC)CCCNC(=O)c1sc(-c2ccccc2)nc1-c1ccccc1
IC50 (Plasmodium falciparum [5]): 1 µM | Activity [1]: Non-toxic | IC50 (Plasmodium falciparum [2]): 13.3 µM | EC50 [3, 7]: 2.3 µM

O=C(NCCCn1ccnc1)c1sc(-c2ccccc2)nc1-c1ccccc1
IC50 (Plasmodium falciparum [5]): 13.9 µM | Activity [1]: Non-toxic | IC50 (Plasmodium falciparum [2]): 11.5 µM | EC50 ([3]; smb): Not Active

CCN(CC)CCNC(=O)c1sc(-c2cccnc2)nc1-c1ccccc1
Activity [1]: Non-toxic | IC50 (Plasmodium falciparum [2]): 5.3 µM | EC50 [3, 7]: 20 µM | inhibition (Plasmodium falciparum [4]): inactive

O=C(c1sc(-c2ccccc2)nc1-c1ccccc1)N1CCC(N2CCCCC2)CC1
IC50 (Plasmodium falciparum [5]): 20.2 µM | Activity [1]: Non-toxic | IC50 (Plasmodium falciparum [2]): 0.83 µM | EC50 [3, 7]: 1.9 µM

CCN(CC)CCCC(C)Nc1ccnc2cc(Cl)ccc12 (stereo not drawn) [CHLOROQUINE]
EC50 [3, 7]: 2.3 µM

CN(C)CCNC(=O)c1sc(-c2ccccc2)nc1-c1ccccc1
Activity [1]: Toxic | IC50 (Plasmodium falciparum [2]): 8.8 µM | EC50 [3, 7]: 4.8 µM | inhibition (Plasmodium falciparum [4]): inactive

CCN(CC)CCNC(=O)c1sc(-c2ccccc2)nc1-c1ccccc1
Activity [1]: Non-toxic | IC50 (Plasmodium falciparum [2]): 0.71 µM | EC50 [3, 7]: 4.9 µM | inhibition (Plasmodium falciparum [4]): inactive

O=C(NCc1ccccn1)c1sc(-c2ccccc2)nc1-c1ccccc1
IC50 (Plasmodium falciparum [5]): 19.7 µM | Activity [1]: Non-toxic | IC50 (Plasmodium falciparum [2]): 15 µM | EC50 ([3]; smb): Not Active

Source: ChEMBL document CHEMBL1777678, “2,4-diarylthiazole antiprion compounds as a novel structural class of antimalarial leads” (Bioorg Med Chem Lett, 2011)
